We go through 42 compounds from patent publication US20060030585A1, “Tricyclic delta-opioid modulators” (priority 2004, published 2006).

Read-outs that look alike come from different tables or passages of the source.

The target of one assay is mu opioid receptor (Rattus norvegicus, UniProt P33535). The assay can be described thus: Rat brain mu opioid receptor binding assay ([3H]DAMGO). Conditions: Rat mu opioid receptor binding constant, rat forebrain membranes, ~0.8 nM [3H]DAMGO. The protocol: Rat Brain Mu Opioid Receptor Binding Assay
(§1) Procedure: Male, Sprague Dawley rats (150-250 g, VAF, Charles River, Kingston, N.Y.) were killed by CO2, and their brains removed and placed immediately in ice cold Tris HCl buffer (50 mM, pH 7.4). The forebrains were separated from the remainder of the brain by a coronal transection, beginning dorsally at the colliculi and passing ventrally through the midbrain-pontine junction. After dissection, the forebrains were homogenized in Tris buffer in a Teflon®-glass homogenizer. The homogenate was diluted to a concentration of 1 g of forebrain tissue per 80 mL Tris and centrifuged at 39,000×g for 10 min. The pellet was resuspended in the same volume of Tris buffer containing 5 mM MgCl2 with several brief pulses from a Polytron homogenizer. This particulate preparation was used for the delta opioid binding assays.
Analysis: The data from the scintillation counter were used to calculate either the % inhibition compared to control binding (when only a single concentration of test compound was evaluated) or a Ki value (when a range of concentrations tested). Percent inhibition was calculated as: [(total dpm-test compound dpm)/(total dpm-nonspecific dpm)]*100. Kd and Ki values were calculated using GraphPad PRISM data analysis program.

The next assay has as its target delta opioid receptor (Rattus norvegicus, UniProt P33533). As to the kind of experiment: Rat brain delta opioid receptor binding assay ([3H]DPDPE). The conditions noted are these: Rat delta opioid receptor binding constant, rat forebrain membranes, ~4 nM [3H]DPDPE. The protocol: Rat Brain Delta Opioid Receptor Binding Assay
as §1, with “assays. Following incubation with the delta selective peptide ligand ˜4 nM [^3H]DPDPE at 25° C. for 2.5 h in a 96-well plate with total volume of 1 mL, the plate contents were filtered through Wallac filtermat B sheets on a Tomtec 96-well harvester. The filters were rinsed three times with 2 mL of 10 mM HEPES (pH 7.4), and dried in a 650 W microwave oven for 1.75 min twice. To each sample area 2×50 μL of Betaplate Scint scintillation fluid (LKB) was added and the radioactivity quantified on a LKB (Wallac) 1205 BetaPlate liquid scintillation counter.” for “assays.”
Analysis: The data from the scintillation counter were used to calculate either the % inhibition compared to control binding (when only a single concentration of test compound was evaluated) or a Ki value (when a range of concentrations was tested). Percent inhibition was calculated as: [(total dpm-test compound dpm)/(total dpm-nonspecific dpm)]*100. Kd and Ki values were calculated using GraphPad PRISM data analysis program.

Chain of delta opioid receptor (P33533 whole entry): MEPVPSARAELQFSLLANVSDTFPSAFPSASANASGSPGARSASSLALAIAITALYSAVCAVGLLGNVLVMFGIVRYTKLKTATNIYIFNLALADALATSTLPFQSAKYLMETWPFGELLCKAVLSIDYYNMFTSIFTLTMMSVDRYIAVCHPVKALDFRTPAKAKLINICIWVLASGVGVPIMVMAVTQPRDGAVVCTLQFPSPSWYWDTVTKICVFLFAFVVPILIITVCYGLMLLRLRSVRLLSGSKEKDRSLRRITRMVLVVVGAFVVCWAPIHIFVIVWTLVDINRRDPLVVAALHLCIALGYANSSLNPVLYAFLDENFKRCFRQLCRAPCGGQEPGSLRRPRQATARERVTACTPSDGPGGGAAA
Chain of mu opioid receptor (P33535 whole entry): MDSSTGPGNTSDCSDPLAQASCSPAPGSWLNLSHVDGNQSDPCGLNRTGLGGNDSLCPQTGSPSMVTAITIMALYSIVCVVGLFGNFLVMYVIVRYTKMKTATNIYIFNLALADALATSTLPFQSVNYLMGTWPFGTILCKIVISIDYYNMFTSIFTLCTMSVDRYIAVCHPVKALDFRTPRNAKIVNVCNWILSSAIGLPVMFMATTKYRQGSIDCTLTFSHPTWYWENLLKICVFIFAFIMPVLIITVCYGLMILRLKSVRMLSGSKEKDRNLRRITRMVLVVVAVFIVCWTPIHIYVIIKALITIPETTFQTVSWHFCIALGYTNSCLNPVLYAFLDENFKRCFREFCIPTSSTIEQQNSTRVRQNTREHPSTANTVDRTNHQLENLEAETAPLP

Take `CC(C)CN(CC(C)C)C(=N)c1ccc2c(c1)Oc1ccccc1C2=C1CC2CCC(C1)N2` [Cpd 28]: the figures for the inhibition constant (Ki) on mu opioid receptor (MOR Ki) and at delta opioid receptor (DOR Ki) were 3100 nM and 107 nM, respectively.
For the compound `COc1cccc2c1Oc1cc(-c3ccoc3)ccc1C2=C1CC2CCC(C1)N2` [Cpd 105], the figures for the Ki on mu opioid receptor (read-out: MOR Ki) and at delta opioid receptor (read-out: DOR Ki) were 497 nM and 88 nM, respectively.
As for `Nc1ccccc1-c1ccc2c(c1)Oc1ccccc1C2=C1CC2CCC(C1)N2` [Cpd 25], the Ki at mu opioid receptor (MOR Ki) was 1660 nM; at delta opioid receptor (DOR Ki), 77.4 nM.
As for `CN(C(=O)c1ccc2c(c1)Oc1ccccc1C2=C1CC2CCC(C1)N2)c1ccc(F)cc1` [Cpd 66], the Ki was 935 nM at mu opioid receptor (MOR Ki) and 93 nM on delta opioid receptor (DOR Ki).
Regarding `COc1cccc(-c2ccc3c(c2)Oc2ccccc2C3=C2CC3CCC(C2)N3)c1` [Cpd 57], the Ki at mu opioid receptor (MOR Ki) was found to be 19700 nM; on delta opioid receptor (DOR Ki) it was 6960 nM.
For `O=c1[nH]c(-c2ccc3c(c2)Oc2c(O)cccc2C3=C2CC3CCC(C2)N3)no1` [Cpd 134, 3-[9-(8-Aza-bicyclo[3.2.1]oct-3-ylidene)-5-hydroxy-9H-xanthen-3-yl]-4H-[1,2,4]oxadiazol-5-one] the same measures were 2 nM and 0.12 nM.
Consider `c1cncc(-c2ccc3c(c2)Sc2ccccc2C3=C2CC3CCC(C2)N3Cc2ccoc2)c1` [Cpd 116, 8-Furan-3-ylmethyl-3-(3-pyridin-3-yl-thioxanthen-9-ylidene)-8-aza-bicyclo[3.2.1]octane], for which the inhibition constant (Ki) amounted to 113 nM at mu opioid receptor (read-out: MOR Ki) and 93 nM at delta opioid receptor (DOR Ki).
`CC(C)NC(=N)c1ccc2c(c1)Oc1ccccc1C2=C1CC2CCC(C1)N2` [Cpd 39]: the Ki on mu opioid receptor (MOR Ki) worked out at 5170 nM; on delta opioid receptor (DOR Ki), 441 nM.
As for `c1cncc(-c2ccc3c(c2)Sc2ccccc2C3=C2CC3CCC(C2)N3Cc2ncc[nH]2)c1` [Cpd 115], the Ki at mu opioid receptor (MOR Ki) turned out to be 60 nM; on delta opioid receptor (DOR Ki), 91 nM.
For `NC(=NO)c1ccc2c(c1)Oc1ccccc1C2=C1CC2CCC(C1)N2` [Cpd 24] the same measures were 621 nM and 76.8 nM.
The corresponding values for `Nc1ccc(-c2ccc3c(c2)Oc2ccccc2C3=C2CC3CCC(C2)N3)cc1` [Cpd 42] are 1310 nM and 490 nM.
Consider `c1ccc2c(c1)Oc1cc(-c3ccsc3)ccc1C2=C1CC2CCC(C1)N2` [Cpd 55], for which the values for the Ki on mu opioid receptor (MOR Ki) and at delta opioid receptor (DOR Ki) were 9280 nM and 4720 nM, respectively.
For `c1ccc2c(c1)Oc1cc(-c3ccncc3)ccc1C2=C1CC2CCC(C1)N2` [Cpd 29] the same measures were 1820 nM and 133 nM.
The corresponding values for `CCc1cnc(-c2ccc3c(c2)Oc2ccccc2C3=C2CC3CCC(C2)N3)[nH]1` [Cpd 26, 3-[3-(5-Ethyl-1 H-imidazol-2-yl)-xanthen-9-ylidene]-8-aza-bicyclo[3.2.1]-octane] are 249 nM and 81 nM.
For `COC(=O)c1ccc2c(c1)Oc1ccccc1C2=C1CC2CCC(C1)N2` [Cpd 73], the Ki was found to be 6340 nM at mu opioid receptor (read-out: MOR Ki) and 1010 nM on delta opioid receptor (read-out: DOR Ki).
For `CN(Cc1ccccc1)C(=O)c1ccc2c(c1)Oc1ccccc1C2=C1CC2CCC(C1)N2` [Cpd 52], the Ki at mu opioid receptor (MOR Ki) was 1830 nM; at delta opioid receptor (DOR Ki), 2730 nM.
`O=C(N1C2CCC1CC(=C1c3ccccc3Oc3cc(-c4cccnc4)ccc31)C2)C(F)(F)F` [Cpd 129]: the Ki on mu opioid receptor (read-out: MOR Ki) and at delta opioid receptor (read-out: DOR Ki) was > 10000 nM throughout.
In the case of `O=C(NC1CCCC1)c1ccc2c(c1)Oc1ccccc1C2=C1CC2CCC(C1)N2` [Cpd 45], the inhibition constant (Ki) on mu opioid receptor (MOR Ki) was determined as 3100 nM; at delta opioid receptor (DOR Ki) it was 673 nM.
For `COc1cccc2c1Oc1cc(-c3noc(=O)[nH]3)ccc1C2=C1CC2CCC(C1)N2` [Cpd 132, 3-[9-(8-Aza-bicyclo[3.2.1]oct-3-ylidene)-5-methoxy-9H-xanthen-3-yl]-4H-[1,2,4]oxadiazol-5-one] the same measures were 254 nM and 0.32 nM.
With `Fc1ccc(-c2ccc3c(c2)Oc2ccccc2C3=C2CC3CCC(C2)N3)cc1` [Cpd 54], at delta opioid receptor (DOR Ki), the Ki worked out at 4470 nM.
As for `CC(=O)Nc1ccccc1-c1ccc2c(c1)Sc1ccccc1C2=C1CC2CCC(C1)N2` [Cpd 113], the Ki is 1520 nM on mu opioid receptor (MOR Ki) and 90 nM at delta opioid receptor (DOR Ki).
Regarding `O=C(NCCc1ccccc1)c1ccc2c(c1)Oc1ccccc1C2=C1CC2CCC(C1)N2` [Cpd 19], the Ki was determined as 438 nM on mu opioid receptor (MOR Ki) and 45 nM at delta opioid receptor (DOR Ki).
On to `CC(=O)Nc1ccccc1-c1ccc2c(c1)Sc1ccccc1C2=C1CC2CCC(C1)N2Cc1ccccn1` [Cpd 121], for which the Ki at mu opioid receptor (read-out: MOR Ki) was found to be 137 nM; on delta opioid receptor (DOR Ki), 3.7 nM.
Take `Brc1ccc2c(c1)Sc1ccccc1C2=C1CC2CCC(C1)N2` [Cpd 84, 3-(3-Bromo-thioxanthen-9-ylidene)-8-aza-bicyclo[3.2.1]octane]: the Ki at mu opioid receptor (MOR Ki) was > 10000 nM; on delta opioid receptor (DOR Ki), 2900 nM.
Regarding `CC(C)(C)OC(=O)N1C2CCC1CC(=C1c3ccccc3Oc3cc(C(=O)NCCO)ccc31)C2` [Cpd 122], the Ki on mu opioid receptor (read-out: MOR Ki) and at delta opioid receptor (read-out: DOR Ki) was > 10000 nM in each case.
`O=c1[nH]c(-c2ccc3c(c2)Oc2ccccc2C3=C2CC3CCC(C2)N3)ns1` [Cpd 95]: the figures for the Ki on mu opioid receptor (read-out: MOR Ki) and on delta opioid receptor (read-out: DOR Ki) were 4930 nM and 159 nM, respectively.
For `O=C(NCc1ccccc1)c1ccc2c(c1)Oc1ccccc1C2=C1CC2CCC(C1)N2` [Cpd 40] the same measures were 3090 nM and 456 nM.
Consider `O=S1NC(c2ccc3c(c2)Oc2ccccc2C3=C2CC3CCC(C2)N3)=NO1` (stereo not drawn) [Cpd 10, 3-[3-(2-Oxo-2,3-dihydro-2|4-[1,2,3,5]oxathiadiazol-4-yl)-xanthen-9-ylidene]-8-aza-bicyclo[3.2.1]octane], for which the inhibition constant (Ki) at mu opioid receptor (MOR Ki) is 819 nM; on delta opioid receptor (DOR Ki) it was 15.1 nM.
On to `CC(=O)Nc1ccccc1-c1ccc2c(c1)Sc1ccccc1C2=C1CC2CCC(C1)N2C` [Cpd 118], for which the inhibition constant Ki on mu opioid receptor (read-out: MOR Ki) worked out at 2070 nM; on delta opioid receptor (read-out: DOR Ki), 612 nM.
Turning to `O=C(c1ccc2c(c1)Oc1ccccc1C2=C1CC2CCC(C1)N2)N1CCC(O)C1` (single isomer, unassigned) [Cpd 69], the Ki at mu opioid receptor (MOR Ki) was 2060 nM; on delta opioid receptor (DOR Ki) it was 105 nM.
For `CC(C)C[C@H](CO)NC(=O)c1ccc2c(c1)Oc1ccccc1C2=C1CC2CCC(C1)N2` [Cpd 67] the same measures were 1570 nM and 360 nM.
The corresponding values for `CN(CCO)C(=O)c1ccc2c(c1)Oc1ccccc1C2=C1CC2CCC(C1)N2` [Cpd 61, 9-(8-Aza-bicyclo[3.2.1]oct-3-ylidene)-9H-xanthene-3-carboxylic acid (2-hydroxy-ethyl)-methyl-amide] are 876 nM and 6.25 nM.
Regarding `COc1cccc2c1Oc1cc(-c3cnc4ccccc4c3)ccc1C2=C1CC2CCC(C1)N2` [Cpd 104], the Ki was 1710 nM at mu opioid receptor (read-out: MOR Ki) and 246 nM on delta opioid receptor (read-out: DOR Ki).
`c1ccc2c(c1)Oc1cc(-c3nnn[nH]3)ccc1C2=C1CC2CCC(C1)N2` [Cpd 81]: the Ki at mu opioid receptor (read-out: MOR Ki) is 261 nM; on delta opioid receptor (read-out: DOR Ki), 0.5 nM.
As to `CC(=O)Nc1ccc(-c2ccc3c(c2)Oc2ccccc2C3=C2CC3CCC(C2)N3)cc1` [Cpd 30], the values for the Ki on mu opioid receptor (MOR Ki) and on delta opioid receptor (DOR Ki) were 2740 nM and 139 nM, respectively.
The corresponding values for `O=C(NC(CO)Cc1ccccc1)c1ccc2c(c1)Oc1ccccc1C2=C1CC2CCC(C1)N2` (single isomer, unassigned) [Cpd 27] are 100 nM and 100 nM.
As to `COc1ccccc1-c1ccc2c(c1)Oc1ccccc1C2=C1CC2CCC(C1)N2` [Cpd 44], the Ki on mu opioid receptor (MOR Ki) was found to be 7580 nM; at delta opioid receptor (DOR Ki) it was 659 nM.
Turning to `c1ccc2c(c1)Oc1cc(C3=NCCCN3)ccc1C2=C1CC2CCC(C1)N2` [Cpd 41], the inhibitory constant (Ki) was 875 nM at mu opioid receptor (MOR Ki) and 464 nM at delta opioid receptor (DOR Ki).
The corresponding values for `COC(=O)[C@H](CO)NC(=O)c1ccc2c(c1)Oc1ccccc1C2=C1CC2CCC(C1)N2` [Cpd 37] are 950 nM and 412 nM.
The corresponding values for `N=C(c1ccc2c(c1)Oc1ccccc1C2=C1CC2CCC(C1)N2)N1CCCCC1` [Cpd 43] are 5340 nM and 496 nM.
In turn, `Cc1cccc(-c2ccc3c(c2)Oc2ccccc2C3=C2CC3CCC(C2)N3)c1` [Cpd 46] gave a Ki at delta opioid receptor (DOR Ki) of 723 nM.
Still for that read-out and setting: the same measure for `COc1ccc(-c2ccc3c(c2)Oc2ccccc2C3=C2CC3CCC(C2)N3)cn1` [Cpd 32]: 160 nM.

As a reminder, the Ki is a measure of affinity in units of concentration, obtained from inhibition or displacement.
